Experimental data taken from paper PMC13203959, “New inhibitors of the Pseudomonas aeruginosa enzyme, PqsE, and methods assessing their potential to induce a conformational change via active site binding” (mSphere, 2026).
Like-named read-outs stand apart in the source and are kept apart here.

How the values were obtained:
PqsE(WT) [1] = molecular target: T1, PqsE(WT) (Pseudomonas aeruginosa, UniProt P20581); test: Esterase assay: inhibition of PqsE-catalyzed MU-butyrate hydrolysis; assay type: biochemical; conditions: for maximum level of inhibition of PqsE(WT): % inhibition
T1 construct: 6xHis (N); made in house; host or cells: E. coli BL21 (DE3)
Method: Purified PqsE, diluted in assay buffer (50 mM Tricine, 0.01% Triton X-100, pH 8.5), was added to the wells of an opaque 384-well plate at a final concentration of 125 nM. Test molecules were diluted in DMSO and added to the wells at the indicated concentrations (5% DMSO final). The plate was then incubated at room temperature for 5 min. MU-butyrate in assay buffer was added to the plate at a final concentration of 2 µM. The plate was incubated at room temperature for 20 min prior to measuring fluorescence (excitation: 360 nm and emission: 450 nm) to monitor the hydrolysis of MU-butyrate. All data were plotted in the Prism 9.0 program, and IC50 values were calculated from inhibition curves fit to the data.

PqsE(WT) [2] = molecular target: T1, PqsE(WT); test: Differential scanning fluorimetry (DSF), PqsE(WT); assay type: binding; conditions: PqsE(WT) 2 µM, compound 100 µM
Method: Compounds HJ1, HJ2, and HJ5 were tested for the ability to bind and shift the Tm of purified PqsE and PqsE variants using DSF as described previously with some modifications ([18]). Briefly, compounds in DMSO were diluted in assay buffer (50 mM Tris, 150 mM NaCl, 200 µM MnCl2, pH 8) to achieve a final concentration of 100 µM (1% DMSO). Compound solutions were transferred to the wells of a 96-well PCR plate (ThermoFisher), and control wells were prepared with 1% DMSO (negative control). SYPRO Orange Dye and PqsE solutions were diluted in assay buffer and subsequently added to the wells to reach final concentrations of 7× SYPRO Orange and 2 µM PqsE. Final volume in each well was 80 µL. Plates were sealed with transparent optical adhesive covers (ThermoFisher) prior to measurement of SYPRO Orange fluorescence (ex, 580 nm; em, 623 nm) in a QuantStudio 3 Real-Time PCR system (ThermoFisher) over an increasing temperature gradient from 25 to 90°C (temperature increased at a rate of 0.1°C/s). Tm was determined from first derivative plots of the raw fluorescence curves using the Prism 9.0 software.

PqsE(E182A) = molecular target: T2, PqsE(E182A) (Pseudomonas aeruginosa, UniProt P20581, E182A); assay type: binding; conditions: PqsE(E182A) 2 µM, compound 100 µM
T2 construct: made in house

[3] = test system: P. aeruginosa PA14 pqsE(S285W) mutant strain; assay type: cell-based; conditions: 50 or 100 µM
PqsE(S285W) [4] = molecular target: T3, PqsE(S285W) (Pseudomonas aeruginosa, UniProt P20581, S285W); assay type: biochemical; conditions: esterase assay
T3 construct: 6xHis (N); made in house; host or cells: E. coli BL21 (DE3)

PqsE(S285A) [5] = molecular target: T4, PqsE(S285A) (Pseudomonas aeruginosa, UniProt P20581, S285A); test: Esterase assay: inhibition of MU-butyrate hydrolysis by PqsE(S285A); assay type: biochemical; conditions: for increase of IC50 against PqsE(S285A) variant versus PqsE(WT): 20 min; for maximum level of inhibition of PqsE(S285A): % inhibition
PqsE(E280A) = molecular target: T5, PqsE(E280A) (Pseudomonas aeruginosa, UniProt P20581, E280A); assay type: binding; conditions: PqsE(E280A) 2 µM, compound 100 µM
T5 construct: made in house

PqsE(E182W/E280A) = molecular target: T6, PqsE(E182W/E280A) (Pseudomonas aeruginosa, UniProt P20581, E182W/E280A); assay type: binding; conditions: PqsE(E182W/E280A) 2 µM, compound 100 µM
T6 construct: made in house

PqsE(S285D) = molecular target: T7, PqsE(S285D) (Pseudomonas aeruginosa, UniProt P20581, S285D); assay type: binding; conditions: PqsE(S285D) 2 µM, compound 100 µM
T7 construct: made in house

PqsE(S285Y) = molecular target: T8, PqsE(S285Y) (Pseudomonas aeruginosa, UniProt P20581, S285Y); assay type: binding; conditions: PqsE(S285Y) 2 µM, compound 100 µM
T8 construct: made in house

PqsE-RhlR interaction = molecular target: T9, PqsE-RhlR interaction (Pseudomonas aeruginosa, UniProt P20581); test: PqsE-RhlR in vitro pull-down; assay type: binding; conditions: up to 100 µM, 1 µM 6xHis-PqsE(WT), RhlR-containing lysate
T9 construct: made in house; host or cells: Escherichia coli (PqsE purified; RhlR as crude lysate from a pET23a-rhlR strain grown with mBTL)
Method: RhlR was expressed following a previously established method ([18], [19]). Briefly, lysate was prepared from cultures of an Escherichia coli strain carrying rhlR on a pET23a plasmid that had been treated with the RhlR-solubilizing ligand, mBTL ([33]). The pull-down assay was conducted following a previously established method with some modifications ([18]). Briefly, purified 6xHis-PqsE(WT) was incubated with test molecules at the specified concentrations for 10 min at room temperature. The treated PqsE was then added to 100 µL of RhlR-containing lysate in lysis buffer (50 mM Tris-HCl, 150 mM NaCl, 20 mM imidazole, pH = 8.0) to a total final volume of 150 µL and a final PqsE concentration of 1 µM (final 0.6% DMSO). The mixtures were incubated at 4°C with rotation for 30 min before MagneHis Ni resin (Promega) was added (10 µL of settle volume), and incubation at 4°C with rotation was continued for 1 h. The Ni resin was then washed three times with lysis buffer, and then PqsE complexes were eluted with 50 µL elution buffer (50 mM Tris-HCl, 150 mM NaCl, 500 mM imidazole, pH = 8.0). The eluted proteins were then denatured in Laemmli sample buffer at 95°C and analyzed by SDS-PAGE.

PqsE(S285W) [6] = molecular target: T3, PqsE(S285W); assay type: binding; conditions: compound 100 µM; for Tm of PqsE-HJ complex / ∆Tm, shift in melting temperature vs DMSO-treated control: PqsE(S285W) 2 µM; for significance of shift in Tm compared to HJ2: PqsE(S285W)
[7] = test system: wild-type P. aeruginosa PA14; test: Pyocyanin assay, wild-type strain; assay type: cell-based, Pseudomonas aeruginosa
Method: P. aeruginosa PA14 cultures were grown overnight in LB at 37°C with shaking. The saturated cultures were then diluted 1:1,000 into fresh LB containing test molecules in DMSO (final 1% DMSO). Cultures then grew for ~17 h at 37°C with shaking at 200 rpm. Next, 1 mL of each culture was collected and pelleted by centrifugation at 13,000 rpm for 3 min. The supernatant was carefully transferred to a cuvette, and the OD695 was measured in a Genesys 20 ThermoSpectronic spectrophotometer. The cell pellet was resuspended in 1 mL of PBS and then transferred into the wells of a clear 96-well plate at 100 µL per well. The OD600 was measured to assess cell density. Pyocyanin production (OD695) of the supernatants was normalized to cell density (OD600 of the resuspended cell pellets).

PqsE(E182W) = molecular target: T10, PqsE(E182W) (Pseudomonas aeruginosa, UniProt P20581, E182W); assay type: binding; conditions: PqsE(E182W) 2 µM, compound 100 µM
T10 construct: made in house

PqsE(S285A) [8] = molecular target: T4, PqsE(S285A); test: Differential scanning fluorimetry (DSF), PqsE(S285A); assay type: binding; conditions: compound 100 µM; for Tm of PqsE-HJ complex / ∆Tm, shift in melting temperature vs DMSO-treated control: PqsE(S285A) 2 µM; for significance of shift in Tm compared to HJ2: PqsE(S285A)
PqsE(WT) [9] = molecular target: T1, PqsE(WT); conditions: 10 min trypsin

| SMILES | Tm of PqsE-HJ complex (PqsE(WT) [2]) [°C] | ∆Tm, shift in melting temperature vs DMSO-treated control (PqsE(WT) [2]) [°C] | Tm of PqsE-HJ complex (PqsE(E182A)) [°C] | ∆Tm, shift in melting temperature vs DMSO-treated control (PqsE(E182A)) [°C] | maximum level of inhibition of PqsE(WT) (PqsE(WT) [1]) | effect of S285W substitution on binding/inhibition (PqsE(S285W) [4]) | Tm of PqsE-HJ complex (PqsE(E280A)) [°C] | ∆Tm, shift in melting temperature vs DMSO-treated control (PqsE(E280A)) [°C] | Tm of PqsE-HJ complex (PqsE(E182W/E280A)) [°C] | ∆Tm, shift in melting temperature vs DMSO-treated control (PqsE(E182W/E280A)) [°C] | Tm of PqsE-HJ complex (PqsE(S285D)) [°C] | ∆Tm, shift in melting temperature vs DMSO-treated control (PqsE(S285D)) [°C] | Tm of PqsE-HJ complex (PqsE(S285Y)) [°C] | ∆Tm, shift in melting temperature vs DMSO-treated control (PqsE(S285Y)) [°C] | Tm of PqsE-HJ complex (PqsE(S285W) [6]) [°C] | ∆Tm, shift in melting temperature vs DMSO-treated control (PqsE(S285W) [6]) [°C] | Tm of PqsE-HJ complex (PqsE(E182W)) [°C] | ∆Tm, shift in melting temperature vs DMSO-treated control (PqsE(E182W)) [°C] | Tm of PqsE-HJ complex (PqsE(S285A) [8]) [°C] | ∆Tm, shift in melting temperature vs DMSO-treated control (PqsE(S285A) [8]) [°C] | also measured |
| --- | --- | --- | --- | --- | --- | --- | --- | --- | --- | --- | --- | --- | --- | --- | --- | --- | --- | --- | --- | --- | --- |
| CC(C)(C)CNC(=O)Nc1ccc(NC(=O)c2cccc3cn[nH]c23)cc1 [BB584, reference compound] |  |  |  |  |  |  |  |  |  |  |  |  |  |  |  |  |  |  |  |  | IC50 (PqsE(WT) [1]; 125 nM PqsE, 2 µM MU-butyrate, pH 8.5, read-out: IC50, inhibition of PqsE enzyme function (MU-butyrate hydrolysis)): 108 nM |
| CC(C)(C)OC(=O)Nc1ccc(NC(=O)c2cccc3cn[nH]c23)cc1 [HJ1] | 70.5 | 3.56 | 70.1 | 0.50 | 100% | completely abrogated binding | 68.8 | 2.28 | 72.4 | 2.58 | 67.2 | 0.35 | 68.3 | 0.54 | 66.8 | 0.07 | 74.4 | 0.98 | 68.1 | 0.81 | effect on pyocyanin production [3]: no appreciable effect; increase of IC50 against PqsE(S285A) variant versus PqsE(WT) (PqsE(S285A) [5]): approximately 10 fold; maximum level of inhibition of PqsE(S285A) (PqsE(S285A) [5]): ~ 70%; effect on PqsE-RhlR complex formation (PqsE-RhlR interaction): neither HJ1 nor HJ5 showed any effect on complex formation; significance of shift in Tm compared to HJ2 (PqsE(S285W) [6]): neither HJ1 nor HJ5 induced significant shifts in Tm; effect on pyocyanin production ([7]; pqsE(WT) strain, up to 100 µM): no appreciable effect; significance of shift in Tm compared to HJ2 (PqsE(S285A) [8]): neither HJ1 nor HJ5 induced significant shifts in Tm |
| Cc1n[nH]c2c(C(=O)Nc3ccc(NC(=O)OC(C)(C)C)cc3)cccc12 [HJ2] | 67.7 | 0.74 | 69.2 | -0.47 |  |  | 67.1 | 0.61 | 70.0 | 0.20 | 67.0 | 0.14 | 68.2 | 0.41 | 66.8 | 0.07 | 73.9 | 0.48 | 67.9 | 0.61 | inhibitory activity on enzymatic activity of PqsE (PqsE(WT) [1]; esterase assay, dilution series): virtually no effect |
| Cc1ccc(C(=O)Nc2ccc(NC(=O)OC(C)(C)C)cc2)c2[nH]ncc12 [HJ5] | 68.8 | 1.82 | 70.6 | 1.00 | ~ 50% | completely abrogated binding | 67.7 | 1.21 | 71.9 | 2.12 | 67.3 | 0.48 | 68.2 | 0.40 | 67.5 | 0.74 | 75.5 | 2.05 | 68.6 | 1.35 | IC50 (PqsE(WT) [1]): 379 nM; band intensity of undigested protein (band 1) after trypsin exposure (PqsE(WT) [9]; increasing concentrations up to 100 µM): increases as the concentration of HJ5 increases; induction of PqsE(E182W)-like banding pattern (conformational change) upon tryptic digest (PqsE(WT) [9]; up to 100 µM, 10 µM PqsE(WT)): did not produce a banding pattern similar to that of PqsE(E182W); increase of IC50 against PqsE(S285A) variant versus PqsE(WT) (PqsE(S285A) [5]): approximately 10 fold; maximum level of inhibition of PqsE(S285A) (PqsE(S285A) [5]): approximately 10%; effect on PqsE-RhlR complex formation (PqsE-RhlR interaction): neither HJ1 nor HJ5 showed any effect on complex formation; significance of shift in Tm compared to HJ2 (PqsE(S285W) [6]): neither HJ1 nor HJ5 induced significant shifts in Tm; decrease in pyocyanin production compared to DMSO-treated WT strain ([7]; 100 µM, WT strain, ~17 h): ~ 37%; inhibition at 50 µM ([7]; Pseudomonas aeruginosa, PA14, 50 µM, WT strain, ~17 h, read-out: inhibition of pyocyanin production compared to DMSO-treated WT strain): ~30%; significance of shift in Tm compared to HJ2 (PqsE(S285A) [8]): neither HJ1 nor HJ5 induced significant shifts in Tm |
